This note sets out measurements from patent US20240140975A1, “ANTIVIRAL APPLICATION OF NUCLEOSIDE ANALOG OR COMBINATION FORMULATION CONTAINING NUCLEOSIDE ANALOG” (priority 2020, published 2024).

The subject of data set [1] is 2019 novel coronavirus (SARS-CoV-2). The data set is described as follows: microbe, parasite or virus in culture. The note with it: Vero E6 cells, 24 h p.i.; for inhibition at 5 µM: Severe acute respiratory syndrome coronavirus 2, Vero C1008, 24 h, read-out: Inhibition Rate (5 μM); for pEC50: Severe acute respiratory syndrome coronavirus 2, Vero C1008, read-out: EC50. It is filed as cell-based.

Data set [2] relates to porcine epidemic diarrhea virus (PEDV). Description: Anti-porcine epidemic diarrhea virus (PEDV) activity test in Vero cells, fluorescence quantitative PCR. The data set is classed as cell-based. The note with it: 36 h.
Data set [3] can be described thus: in vitro. The settings on record: human.
Data set [4] relates to human coronavirus OC43 (HCoV OC43). Description: Cytopathic effect (CPE) assay, HCoV OC43 in Huh7. The note with it: Betacoronavirus 1, OC43, Huh-7, Huh7 cells. The data set is classed as cell-based. The procedure: The inhibitory effects of compounds on the replication of respiratory syncytial virus (RSV), human coronavirus OC43, influenza A virus, Zika virus (Zika) were tested using cytopathic effect (CPE) assay.
Experimental cells were inoculated in 96-well cell culture plate at a certain cell density, and cultured in an incubator (5% CO2, 37° C.) overnight. Compounds and viruses were added on the second day. […] Then cell viability of each well was detected using Cell Titer-Glo or CCK-8. […] The cytotoxicity test method was the same as the corresponding antiviral test method without virus infection.
The antiviral activity and cytotoxicity of the compounds are respectively indicated by the inhibition rate (%) of compounds on virus-induced cellular viral effects and cell viability (%). Calculating formulas are as follows:
Inhibition rate (%)=(reading value of test well—average value of virus control)/(average value of cell control—average value of virus control)×100;
EC50 and CC50 value are calculated by Prism software, and the inhibition curve fitting method is “log (inhibitor) vs. response—Variable slope”.

The nature of data set [5]: in vivo. The note with it: male, CD-1, mouse.
Data set [6] has as its system respiratory syncytial virus (RSV). Description: Cytopathic effect (CPE) assay, RSV in HEp-2. The settings on record: human respiratory syncytial virus, HEp-2 cells. The data set is classed as cell-based. On the technique in general: Protection from cytopathic effect is a common read-out in antiviral testing.
Data set [7] is described as follows: in vitro. The note with it: human. The source holds these as a separate data set.
Data set [8] can be described thus: Pharmacokinetic evaluation in mice.
On the set-up of data set [9]: species or system SD rats. The settings on record: male, Sprague-Dawley (SD), rat, in vivo. On the procedure: 18 male SD rats were randomly divided into 6 groups, with 3 rats for each group. Before the experiment, they were fasted for 12 hours (not for the intravenous experiment group) and allowed to drink water. 4 hours after dosing, the animals were fed. Among them, 3 groups were intragastrically administered with 10 mg/kg of A9, A146 and A151, respectively, and the remaining 3 groups were intravenously administered with 2 mg/kg of A9, A146 and A151, respectively. The vehicle for administration was DMSO/EtOH/PEG300/0.9% NaCl (5/5/40/50, v/v/v/v).
5 min (intravenous only), 0.25, 0.5, 1.0, 2.0, 4.0, 6.0, 8.0 and 24 h post administration, 0.2 mL of blood sample was collected from jugular vein into EDTA-K2 tubes, and centrifuged at 11000 rpm for 5 min. The plasma was separated, and frozen in a refrigerator at −70° C. for testing. The operation was conducted in an ice water bath. The concentration of A9 in plasma was determined by LC-MS-MS, and the pharmacokinetic parameters were calculated.

Data set [10] concerns dengue fever virus (DENV). The data set is described as follows: Dengue virus plaque reduction test in Vero cells. The data set is classed as cell-based. The note with it: Dengue virus, read-out: DENV (Vero) 5 μM (inhibition rate), 5 μM, plaque reduction.
The test system of data set [11] is Zika virus (Zika). Description: Cytopathic effect (CPE) assay, Zika virus in Huh7. The data set is classed as cell-based. The settings on record: for pEC50: Huh-7, Huh7 cells, CPE.
Data set [12] in a line: Tissue distribution test in mice. It is filed as in vivo, CD-1 mice. The note with it: oral administration of A151, liver, kidney, lung, heart. On the procedure: 16 male CD-1 mice were randomly divided into 4 groups, with 4 mice for each group.
Before the experiment, they were fasted for 12 hours and allowed to drink water. 2 hours after dosing, the animals were fed. The 4 groups were given 200 mg/kg A151 (dissolved in DMSO-enthanol-PEG300-saline, volume ratio: 5/5/40/50) by intragastric administration. At 1 h, 2 h, 4 h and 8 h after administration, the mice were anesthetized; blood sample was collected by heart puncture, and tissues of liver, kidney, heart and lung were harvested. The distribution profile of A9 in the tissues was determined by HPLC-MS/MS.

Data set [13] has as its target RNA-dependent RNA polymerase (RdRp) of 2019 novel coronavirus (SARS-CoV-2) (Severe acute respiratory syndrome coronavirus 2 (2019-nCoV) (SARS-CoV-2), UniProt P0DTD1). Description: Inhibition of RdRp of novel coronavirus, fluorescence method. The settings on record: RdRp of novel coronavirus. The data set is classed as biochemical. On the procedure: According to the method reported in the literature (Virus Genes, 2015, 50:498-504), the inhibitory activity of the compound of the invention on RNA-dependent RNA polymerase (RdRp) of 2019 novel coronavirus (SARS-CoV-2) was determined using the fluorescence method: after the solution of the novel coronavirus RdRp, substrate, compound solution, buffer solution, etc were co-incubated for 1 hour, fluorescent DNA binding dye was added. 10 minutes later, data collection was carried out and the inhibitory activities of the compounds on RdRp were determined.

Setting [14] is: Porcine epidemic diarrhea virus, Vero.
[15] abbreviates: male, CD-1, mouse, in vivo, po, 50 mg/kg.

By inhibition is commonly meant the change of the read-out against control, counted positive when it falls. Usually pEC50 stands for the EC50 on a negative log10 scale, so that one unit is a factor of ten. In general, half-life refers to how long it takes for the measured level to halve. Lower therefore signals rapid decline. Usually AUC(0-inf) stands for total exposure, with the tail of the curve extrapolated. What is called AUC(0-t) is the area under the concentration-time curve up to a stated or last time point. Usually Cmax stands for the maximum level reached in the sampled fluid or tissue. By Tmax is commonly meant the time from dosing to the highest level.

pEC50: −log10 of the molar value. Where two headings read alike, the source gives them in different places.

With `[2H]c1cc([C@]2(C#N)O[C@H](C([2H])([2H])O)[C@@H](O)[C@H]2O)n2ncnc(N)c12` (stereo in doubt) [Compound A11], the inhibition at 5 µM in [1] was more than 98%. In data set [2] (setting [14]), this molecule gave a pEC50 of 8.30. In data set [3], the CC50 is more than 10000 nM. In addition, the pEC50 in data set [4] is 5.70. The molecule also gave a half-life in [5] (po, 50 mg/kg) of 1.9 h. In [6], this molecule had a pEC50 of 6.18. Also, in data set [7], the CC50 is more than 10000 nM. Also, in [8] (setting [15]), the AUC(0-inf) amounted to 5750 ng·h/mL, the AUC(0-t) worked out at 5680 ng·h/mL, the Cmax was 2120 ng/mL and the Tmax was 0.7 h.
As to `[2H]c1cc([C@]2(C#N)O[C@H](CO)[C@@H](O)[C@H]2O)n2ncnc(N)c12` [Compound A9], the inhibition at 5 µM is 99% in data set [1] and 100% in data set [10]. Moreover, the pEC50 in data set [1] was 6.36; in [2] (setting [14]), 7.80; in data set [4], 5.75; in [6], 6.25; in data set [11], 4.92. Also, the “F % (oral bioavailability)” value in [9] is on record as 21.3%. The “T1/2” value in data set [9] (iv, 2 mg/kg) turned out to be 2.3 h; in data set [9] (po, 10 mg/kg), 3.4 h. Besides, the CC50 in data set [3] and in [7] was more than 10000 nM throughout. In addition, in data set [5] (po, 50 mg/kg), the half-life is 1 h. The molecule further came in with an AUC(0-inf) in data set [8] (setting [15]) of 6010 ng·h/mL. This molecule also gave an exposure AUC(0-t) in [8] (setting [15]) of 5980 ng·h/mL. The molecule further showed a Cmax in data set [8] (setting [15]) of 3230 ng/mL. For the same molecule, the Tmax in data set [8] (setting [15]) is 1.2 h.
In the case of `[2H]C([2H])(O)[C@H]1O[C@@](C#N)(c2ccc3c(N)ncnn23)[C@H](O)[C@@H]1O` [Compound A10], in data set [1], the inhibition at 5 µM was determined as 99% and the pEC50 was 6.37. The same molecule had a pEC50 in data set [2] (setting [14]) of 8.22. The molecule further had a CC50 in [3] of more than 10000 nM. This molecule showed a pEC50 in [4] of 5.70. In data set [5] (po, 50 mg/kg), this molecule showed a half-life of 1.3 h. For the same molecule, the negative-log EC50 (pEC50) in data set [6] was 6.20. The same molecule had a CC50 in data set [7] of more than 10000 nM. Moreover, in [8] (setting [15]), the AUC(0-inf) turned out to be 4620 ng·h/mL, the AUC(0-t) was found to be 4550 ng·h/mL, the Cmax is 1760 ng/mL and the Tmax is 0.8 h.
For `[2H]c1cc([C@]2(C#N)O[C@H](COC(=O)C(C)C)[C@@H](O)[C@H]2O)n2ncnc(N)c12` [Compound A70], the inhibition at 5 µM in [1] was 99%; in data set [11] (Huh-7, 5 μM, Huh7 cells), approximately 27%. Also, the pEC50 in data set [2] (setting [14]) was 8.70; in [4] it was 5.72; in data set [6], 6.24. The CC50 in data set [3] and in [7] was more than 10000 nM in each case.
Turning to `[2H]c1cc([C@]2(C#N)O[C@H](COC(=O)C(C)C)[C@@H](OC(=O)C(C)C)[C@H]2OC(=O)C(C)C)n2ncnc(N)c12` [Compound A151], the inhibition at 5 µM in [1] stood at 99%. For the same molecule, the pEC50 was 6.51 in data set [1], more than 7.00 in [2] (setting [14]), 5.70 in data set [4] and 6.20 in [6]. Also, the “F % (oral bioavailability)” value in data set [9] amounted to 56.7%. The “T1/2” value amounted to 1.5 h in data set [9] (iv, 2 mg/kg) and 2.6 h in [9] (po, 10 mg/kg). In data set [3], the CC50 was more than 10000 nM. Further, the “tissue distribution of metabolite A9 (in words)” value in [12] is recorded as “evenly distributed, without accumulation in liver or kidney”.
Regarding `[2H]c1cc([C@]2(C#N)O[C@H](C([2H])([2H])OP(=O)(O)OP(=O)(O)OP(=O)(O)O)[C@@H](O)[C@H]2O)n2ncnc(N)c12` [Compound A198], the “inhibition of the activity of RdRp (in words)” value in data set [13] is recorded as “significantly inhibit the activity of RdRp”.
As to `N#C[C@@]1(c2ccc3c(N)ncnn23)O[C@H](CO)[C@@H](O)[C@H]1O` [GS-441524, reference compound], the inhibition at 5 µM in data set [1] was 99%. The negative-log EC50 (pEC50) in data set [1] is 6.32; in data set [2] it was 7.59; in data set [4], 5.73; in [6], 6.14; in data set [11], 4.82. Further, the CC50 in [3] and in data set [7] was more than 10000 nM in each case. For the same molecule, the half-life in [5] (iv, 25 mg/kg) is 1 h; in data set [5] (po, 50 mg/kg), 1.2 h. In addition, the AUC(0-inf) in data set [8] (male, CD-1, mouse, in vivo, iv, 25 mg/kg) stood at 14600 ng·h/mL; in data set [8] (setting [15]) it was 4620 ng·h/mL. The time to peak (Tmax) in [8] (mice, p.o. 50 mg/kg, plasma) is listed as 0.8 h.
